According to patent US20230128252A1, “PHARMACEUTICAL COMPOSITIONS” (Shenzhen Pharmacin Co., Ltd., priority 2020, published 2023):
In brackets after ≈: the same amount, converted by molar mass. Where two headings read alike, the source gives them in different places.

How the values were obtained:
[1] = Solubility of clofazimine in aqueous media; type: physicochemical; details: aqueous medium, aqueous with cosolvent or surfactant or cyclodextrin, thermodynamic from solid; pH 4.5 + 0.25% SDS, 25° C.
Experimental: Clofazimine was added to various aqueous media, at various pH values (2-5 mL) in a 10 mL glass vial, at 25° C., with stirring. […] This cycle was repeated until no further dissolution was observable. The suspension was then centrifuged and the supernatant filtered by microfiltration.

[2] = preparation of clofazimine carbomer gel with organic solvents; type: physicochemical; details: Carbomer 940 gel in water, pH 7.0
[3] = tested on: imiquimod-induced psoriasis like mouse model; test: imiquimod-induced psoriasis like mouse model, PASI method; type: in vivo, C57BL/6J mice; details: Formulations 1-3, topical
Excerpt: Fifty C57BL/6J mice were random divided into 5 groups, naïve group, model group, Formulation 1-3 groups. All mice were shaved on the back. Naïve group was the negative group and as the blank control. The other four groups were locally applied with 5% imiquimod cream (sold under the tradename Aldara®) once a day for a week. […] In the last three days, the changes of skin lesions were observed and evaluated by PASI method. PASI method: the scores of erythema, scale and infiltration thickening in the skin lesions were scored respectively, and the sum of the three scores was the total score. PASI scoring standard: 0, none; 1, mild; 2, moderate; 3, severe; 4, extremely severe.

[4] = tested on: IL-2 secretion of activated Jurkat cells; test: Inhibition of IL-2 secretion of activated Jurkat cells (ELISA); type: cell-based; details: 1 μM, 3 μM, and 10 μM in DMSO; PMA+PHA activated; 24 h (FIG. 11)
Experimental: In each group, Jurkat cells were incubated with corresponding formulation. After 24 h, the secretion of IL-2 was detected by ELISA.

[5] = blood concentration after topical application in minipigs; type: in vivo, Bama minipigs
Experimental: Studies were performed to evaluate the blood concentration-time curve after topical application of Formulations 10-12 (clofazimine 0.01%, 0.03% and 0.1%) in Bama minipigs. 24 Bama minipigs (12 male and 12 female) were randomly divided into 4 groups (n=6), three groups received a single topical application of Formulations 10-12 (clofazimine 0.01%, 0.03% and 0.1%). […] In above 4 groups, Formulations 10-12 were applicated to 5% body surface area of Bama minipigs, that is, 1.5 mg ointment/cm^2 (corresponding to 0.15, 0.45, 1.5 μg API/cm^2 respectively). […] A validated LC-MS/MS method was used to determine the concentration of clofazimine in plasma and the pharmacokinetic parameters were calculated (the standard curve range of clofazimine is 0.0100˜10.0 ng/mL).

[6] = pharmacokinetics and tissue distribution after single-dose topical application in minipigs; type: in vivo, Bama minipigs; details: Formulation 11 (0.03%) single topical application
Experimental: Studies were performed to evaluate the pharmacokinetics and tissue distribution after a single-dose topical application of Formulation 11 (clofazimine 0.03%) in Bama minipigs. 24 Bama minipigs were divided into 6 groups (n=4), each group of minipigs received a single topical application of Formulation 11 (0.03%) at a dose of 1.5 mg ointment/cm^2. Blood samples, epidermis, dermis, subcutaneous tissue and subcutaneous muscle were collected at 0.5, 4, 24, 48, 72 and 96 hours (one time point for one group) after drug application. A validated LC-MS/MS method was used to determine the concentration of clofazimine in plasma, epidermis, dermis, subcutaneous tissues and subcutaneous muscle and the pharmacokinetic parameters were calculated (the standard curve range of clofazimine is 0.0100˜10.0 ng/mL).

[7] = cited from earlier work
[8] = cited from earlier work; for time to reach peak plasma concentration (Tmax): oral administration
[9] = Solubility of clofazimine in various solvents; details: 25 °C, thermodynamic from solid
Experimental: Clofazimine was added to various solvents (2-5 mL) in a 10 mL glass vial, at 25° C., with stirring. […] This cycle was repeated until no further dissolution was observable. The suspension was then centrifuged and the supernatant filtered by microfiltration.

[10] = target: Kv1.3 channels in human Jurkat E6-1 cells (Homo sapiens, UniProt P22001); test: Inhibition of Kv1.3 channel current, voltage ramp protocol; details: for Inhibition ratio of Kv1.3 channel current in Jurkat E6-1 cells: n 3
Kv1.3 channels in human Jurkat E6-1 cells, sequence (P22001 whole entry): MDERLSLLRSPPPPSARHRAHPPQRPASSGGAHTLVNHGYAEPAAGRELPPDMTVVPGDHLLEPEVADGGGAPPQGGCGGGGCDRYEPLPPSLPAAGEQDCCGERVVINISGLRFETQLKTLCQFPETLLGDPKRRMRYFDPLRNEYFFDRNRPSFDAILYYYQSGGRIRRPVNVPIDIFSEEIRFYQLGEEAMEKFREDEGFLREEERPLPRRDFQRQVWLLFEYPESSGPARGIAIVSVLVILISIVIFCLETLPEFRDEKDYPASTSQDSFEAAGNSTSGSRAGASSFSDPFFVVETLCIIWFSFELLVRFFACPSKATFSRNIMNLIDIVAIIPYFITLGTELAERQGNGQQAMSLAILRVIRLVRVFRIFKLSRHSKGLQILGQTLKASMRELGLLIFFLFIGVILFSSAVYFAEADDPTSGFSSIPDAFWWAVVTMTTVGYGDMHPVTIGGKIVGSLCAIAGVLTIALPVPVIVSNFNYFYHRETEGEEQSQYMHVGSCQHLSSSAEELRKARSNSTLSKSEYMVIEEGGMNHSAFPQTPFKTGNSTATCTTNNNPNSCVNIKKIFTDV

SMILES: CC(C)/N=c1\cc2n(-c3ccc(Cl)cc3)c3ccccc3nc-2cc1Nc1ccc(Cl)cc1 [Clofazimine, N,5-bis(4-chlorophenyl)-3-propan-2-ylimino phenazin-2-amine]
- solubility at 24 h [1]: 710 µg/mL
- outcome of gel preparation ([2]; solvent Laurocapram): formation of separated layers
- outcome of gel preparation ([2]; solvent Propylene glycol): clofazimine precipitation
- treatment effect on the imiquimod-induced psoriasis like mouse model [3]: confirmed the treatment effect
- secretion of IL-2 [4]: significantly inhibited
- clofazimine in plasma ([5]; repeated dose (0.03%, bid, 9 applications)): a very low level of clofazimine could be detected in plasma
- clofazimine in plasma ([5]; single dose groups, majority of the samples): no clofazimine was detectable
- clofazimine in plasma ([5]; single dose groups, minority of samples in the 0.01% and 0.1% groups, 1.5 mg ointment/cm^2, 5% body surface area): very low level of clofazimine (close to the detection limit of the instrument)
- gender difference in clofazimine absorption ([5]; topical, male and female): No significant gender difference
- median time to peak dermal concentration [6]: about 4 h
- median time to peak epidermal concentration [6]: about 0.5 h
- median time to peak subcutaneous muscle concentration [6]: about 0.5 h
- median time to peak subcutaneous tissues concentration [6]: about 4 h
- tissue distribution [6]: mainly distributed in the epidermis and dermis, and not absorbed into blood
- Log P [7]: 7.48
- pKa [7]: 8.37
- Water solubility ([7]; virtually insoluble): 0.225 mg/L
- time to reach peak plasma concentration (Tmax) ([8]; fasted state): 12 h
- time to reach peak plasma concentration (Tmax) ([8]; fed conditions): 8 h
- absorption rate ([8]; oral, FDA Label information): 45-62%
- solubility at 24 h ([9]; organic solvent or mixture): 7480 µg/mL (≈ 15.8 mM)
- solubility at 24 h ([9]; solvent, oil or lipid, Solubility, Castor oil): 11000 µg/mL (≈ 23.3 mM)
- solubility at 24 h ([9]; solvent, oil or lipid, Solubility, Coconut oil): 5100 µg/mL (≈ 10.8 mM)
- solubility at 24 h ([9]; solvent, oil or lipid, Solubility, Corn oil): 5800 µg/mL (≈ 12.3 mM)
- solubility at 24 h ([9]; solvent, oil or lipid, Solubility, Glyceryl monooleate): 8860 µg/mL (≈ 18.7 mM)
- solubility at 24 h ([9]; solvent, oil or lipid, Solubility, Isopropyl myristate): 8510 µg/mL (≈ 18 mM)
- solubility at 24 h ([9]; solvent, oil or lipid, Solubility, Soybean oil): 5100 µg/mL (≈ 10.8 mM)
- solubility at 24 h ([9]; solvent, organic solvent or mixture, Solubility, Ethanol): 950 µg/mL (≈ 2.01 mM)
- solubility at 24 h ([9]; solvent, organic solvent or mixture, Solubility, Glycerol): 490 µg/mL (≈ 1.04 mM)
- solubility at 24 h ([9]; solvent, organic solvent or mixture, Solubility, Labrasol): 25400 µg/mL (≈ 53.6 mM)
- solubility at 24 h ([9]; solvent, organic solvent or mixture, Solubility, Laurocapram): 46700 µg/mL (≈ 98.7 mM)
- solubility at 24 h ([9]; solvent, organic solvent or mixture, Solubility, Oleic acid polyethylene glycol glyceride): 12200 µg/mL (≈ 25.8 mM)
- solubility at 24 h ([9]; solvent, organic solvent or mixture, Solubility, PEG 400, 25° C.): 9510 µg/mL (≈ 20.1 mM)
- solubility at 24 h ([9]; solvent, organic solvent or mixture, Solubility, Polyglycerol fatty acid ester): 4960 µg/mL (≈ 10.5 mM)
- solubility at 24 h ([9]; solvent, organic solvent or mixture, Solubility, Polyoxyethylene hydrogenated castor oil): 8670 µg/mL (≈ 18.3 mM)
- solubility at 24 h ([9]; solvent, organic solvent or mixture, Solubility, Propane 1,2-diol): 420 µg/mL (≈ 0.887 mM)
- solubility at 24 h ([9]; solvent, organic solvent or mixture, Solubility, Transcutol): 21600 µg/mL (≈ 45.5 mM)
- solubility at 24 h ([9]; solvent, organic solvent or mixture, Solubility, Tween 20, 25° C.): 7400 µg/mL (≈ 15.6 mM)
- solubility at 24 h ([9]; solvent, organic solvent or mixture, Solubility, Tween 80, 25° C.): 10100 µg/mL (≈ 21.3 mM)
- IC50 [10]: 3.3 µM
- Inhibition ratio of Kv1.3 channel current in Jurkat E6-1 cells ([10]; 0.3 μM): 7.09 ± 0.86%
- Inhibition ratio of Kv1.3 channel current in Jurkat E6-1 cells ([10]; 1 μM): 18.89 ± 3.38%
- Inhibition ratio of Kv1.3 channel current in Jurkat E6-1 cells ([10]; 3 μM): 46.84 ± 4.55%
- Inhibition ratio of Kv1.3 channel current in Jurkat E6-1 cells ([10]; 10 μM): 70.11 ± 2.91%
- Inhibition ratio of Kv1.3 channel current in Jurkat E6-1 cells ([10]; 20 μM): 83.62 ± 1.99%
